Measurements reported in patent publication US4929751A, “Vinyl tricarbonyl compounds and methods of making the same” (Yale University, priority 1987, dated 1990).
Read-outs that look alike come from different tables or passages of the source.

Legend:
Format in all cases: cell-based
OVCAR-5 (ovarian) = experiment: growth inhibition of tumor cell line; details: for IC50: Homo sapiens, OVCAR-5
Source text: (§1) t-Butyl 2,3-dioxo-pent-4-enoate hydrate (A) was contacted with various cell lines as indicated on Table 1 hereinbelow in the column designated as "CELL" or "TUMOR". […]
As described below, the data in Table 1 serve to display the testing results on disease category selectivity in a bar graph format. Bars projecting to the right of the reference (vertical line of asterisks) indicate greater than average sensitivity to the test compound. Each bar represents one power of ten in sensitivity, so that the results for OVCAR-5 (ovarian tumor) indicate a remarkable […] increase in sensitivity over the reference test.
(§2) Table 1 reports and illustrates the results obtained by testing t-butyl 2,3-dioxo-pent-4-enoate hydrate. The concentration of this compound found to inhibit the growth of each cell line listed under "CELL" by 50% is reported under "LOG(IC50)" as the logarithm of the concentration. The units of concentration are either molarity in which case an "M" is shown in parentheses next to the LOG(IC50) label, or micrograms per ml, in which case a "W" (for weight) is shown in parenthesis. The cell line names are grouped by disease type and the disease type names are listed on the far left.

HCC-2998 (colon) = experiment: growth inhibition of tumor cell line; details: Homo sapiens
Source text: as §1, §2

[1] = tested on: SNB-75 (central nervous system); experiment: growth inhibition of tumor cell line; details: Homo sapiens
Source text: as §1, §2

[2] = tested on: DMS114 (small cell lung cancer); experiment: growth inhibition of tumor cell line; details: Homo sapiens
Source text: as §1, §2

LOX (melanoma) = experiment: growth inhibition of tumor cell line
Source text: as §1, §2

[3] = tested on: SNB-19 (central nervous system); experiment: growth inhibition of tumor cell line; details: Homo sapiens
Source text: as §1, §2

[4] = tested on: H146 (small cell lung cancer); experiment: growth inhibition of tumor cell line; details: Homo sapiens, NCI-H146
Source text: as §1, §2

[5] = tested on: H524 (small cell lung cancer); experiment: growth inhibition of tumor cell line; details: Homo sapiens, NCI-H524
Source text: as §1, §2

[6] = tested on: H520 (nonsmall cell lung cancer); experiment: growth inhibition of tumor cell line; details: Homo sapiens, NCI-H520
Source text: as §1, §2

[7] = tested on: H82 (small cell lung cancer); experiment: growth inhibition of tumor cell line
Source text: as §1, §2

MALME-3M (melanoma) = experiment: growth inhibition of tumor cell line; details: Homo sapiens
Source text: as §1, §2

A2780 (ovarian) = experiment: growth inhibition of tumor cell line; details: Homo sapiens
Source text: as §1, §2

[8] = tested on: A549 (nonsmall cell lung cancer); experiment: growth inhibition of tumor cell line; details: Homo sapiens, logarithm of the concentration inhibiting growth by 50%
Source text: as §1, §2

SK-MEL5 (melanoma) = experiment: growth inhibition of tumor cell line; details: Homo sapiens
Source text: as §1, §2

[9] = tested on: H358 (nonsmall cell lung cancer); experiment: growth inhibition of tumor cell line; details: Homo sapiens, NCI-H358
Source text: as §1, §2

UO-31 (renal) = experiment: growth inhibition of tumor cell line; details: Homo sapiens, logarithm of the concentration inhibiting growth by 50%
Source text: as §1, §2

tumor cells = experiment: growth inhibition of tumor cells, whole panel (mean graph)
Source text: as §1, §2
The graph on the right depicts the data on the left in a format called a "MEAN GRAPH" which is designed to aid in the identification of differential growth inhibition. […] The interest in using this concept of differential growth inhibition as a criterion of activity in the screening system is to encourage the discovery of new types of anticancer agents having greater tissue specificity than cancer chemotherapeutic agents in use today.
The idea for the Mean Graph resulted from trying to detect differential growth inhibition in a bar graph format Experimentation led to a graph centered at the arithmetic mean (ML) of the logarithm of the IC50'a of all the cell line responses measured for a compound. The Mean Graph is constructed around a vertical reference (indicating ML) by projecting bars to the right or to the left. […] The lengths of the bars are proportional to the differences between the logarithms of the specific cell line IC50's and the overall mean value ML. These lengths represent differences in logarithms which are equivalent to the ratios of the specific IC50's to the geometric mean of all the IC50's. Therefore, a useful property of the Mean Graph format is the ability to compare patterns derived from IC50's measured in different units, e.g, micrograms per ml and molarity. The units cancel in the division process.
Differential growth inhibition is depicted as a bar projecting some distance to the right of ML. A bar projecting three log units to the right of ML, for example, would reflect a cellular sensitivity 1000 times greater than ML. While any degree of sensitivity greater than ML might theoretically be considered differential growth inhibition, in practice one must consider the experimental error in the measurement and at what point the degree of differential growth inhibition becomes meaningful in biological terms. The three values listed a the bottom of the graph provide the value of ML as "AVE LOG(IC50)", the greatest difference from ML as "DELTA" and the difference between the least sensitive cell line and the most sensitive cell line as the "RANGE".

[10] = logarithm of the concentration inhibiting growth by 50%, read-out: LOG(IC50) (converted)

## C=CC(=O)C(O)(O)C(=O)OC(C)(C)C [t-butyl 2,3-dioxo-pent-4-enoate hydrate]
OVCAR-5 (ovarian); read-out: IC-50 MEAN
  IC50: 2.01 µM
OVCAR-5 (ovarian); [10]
  IC50: 1.26 µM
OVCAR-5 (ovarian); in words
  effectiveness against ovarian cell line OVCAR-5: particularly effective
HCC-2998 (colon); HCC 2998, HCC2998, logarithm of the concentration inhibiting growth by 50%, read-out: LOG(IC50)
  IC50: > 50.1 µM
HCC-2998 (colon); HCC-2998, read-out: IC-50 MEAN
  IC50: 52 µM
[1]
  IC90: 231 µM
[1]; [10]
  IC50: 79.4 µM
[1]; read-out: IC-50 MEAN
  IC50: 81.5 µM
[2]; DMS-114
  IC90: 264 µM
[2]; DMS-114, logarithm of the concentration inhibiting growth by 50%, read-out: LOG(IC50) (converted)
  IC50: 126 µM
[2]; DMS-114, read-out: IC-50 MEAN
  IC50: 141 µM
LOX (melanoma)
  IC90: 258 µM
LOX (melanoma); [10]
  IC50: 100 µM
LOX (melanoma); read-out: IC-50 MEAN
  IC50: 102 µM
[3]
  IC90: 243 µM
[3]; [10]
  IC50: 100 µM
[3]; read-out: IC-50 MEAN
  IC50: 95.2 µM
[4]; H146, logarithm of the concentration inhibiting growth by 50%, read-out: LOG(IC50) (converted)
  IC50: 126 µM
[4]; read-out: IC-50 MEAN
  IC50: 124 µM
[5]
  IC90: 189 µM
[5]; H524, logarithm of the concentration inhibiting growth by 50%, read-out: LOG(IC50) (converted)
  IC50: 39.8 µM
[5]; read-out: IC-50 MEAN
  IC50: 40.8 µM
[6]; H520, logarithm of the concentration inhibiting growth by 50%, read-out: LOG(IC50) (converted)
  IC50: 100 µM
[6]; read-out: IC-50 MEAN
  IC50: 105 µM
[7]; H82, logarithm of the concentration inhibiting growth by 50%, read-out: LOG(IC50) (converted)
  IC50: 39.8 µM
[7]; Homo sapiens, NCI-H82
  IC90: 172 µM
[7]; Homo sapiens, NCI-H82, read-out: IC-50 MEAN
  IC50: 36.7 µM
MALME-3M (melanoma)
  IC90: 180 µM
MALME-3M (melanoma); MALME-3, logarithm of the concentration inhibiting growth by 50%, read-out: LOG(IC50) (converted)
  IC50: 100 µM
MALME-3M (melanoma); read-out: IC-50 MEAN
  IC50: 78.8 µM
A2780 (ovarian)
  IC90: 249 µM
A2780 (ovarian); [10]
  IC50: 63.1 µM
A2780 (ovarian); read-out: IC-50 MEAN
  IC50: 70.3 µM
[8]
  IC50: > 251 µM
SK-MEL5 (melanoma); SK-MEL-5
  IC90: 222 µM
SK-MEL5 (melanoma); SK-MEL-5, logarithm of the concentration inhibiting growth by 50%, read-out: LOG(IC50) (converted)
  IC50: 63.1 µM
SK-MEL5 (melanoma); SK-MEL-5, read-out: IC-50 MEAN
  IC50: 74.2 µM
[9]; H358, logarithm of the concentration inhibiting growth by 50%, read-out: LOG(IC50) (converted)
  IC50: 158 µM
[9]; read-out: IC-50 MEAN
  IC50: 155 µM
UO-31 (renal)
  IC50: > 251 µM
Tumor cells; arithmetic mean of the logarithm of the IC50 of all cell lines, read-out: AV TC50 (AVE LOG(IC50), ML) (converted)
  IC50: 74.1 µM
Tumor cells; difference between least and most sensitive cell line, log units
  RANGE: 2.3
Tumor cells; greatest difference from ML, log units
  DELTA: 1.8
Tumor cells; mean over the cell lines, read-out: IC-50 MEAN, NSC MEAN
  IC50: 79.1 µM
Tumor cells; total cell lines used = 42, read-out: MEAN OF ALL LOGIC50'S (converted)
  IC50: 100 µM
